# Assay results: patent EP0504184B1, “ACTIVE AGENT AGAINST RETROVIRUS GROUP VIRUSES, COMPOSITIONS CONTAINING SAME AND THEIR USE” (PREVISAN S.A., priority 1989, dated 1991)
# Legend:
# [1] = tested on: virus VIH-1 dans des lymphocytes humains infectés; experiment: p24 antigen of treated HIV-1 infected human lymphocytes (optical density); format: cell-based; settings: chloroazodine 1/3000
# From the text: On a reproduit l'expérience de l'exemple 7, mais avec des lymphocytes humains infectés par du VIH-1. La chloroazodine a été utilisée à la dose de 1/3000 pendant 1 heure, 3 heures et 6 heures sur les cellules infectées. Tableau 6
# Afin de conserver un nombre suffisant de lymphocytes vivants il a fallu limiter l'expérimentation à 6 heures.
# cellules Supt-1 = experiment: Toxicity test of chloroazodine towards Supt-1 cells (cell viability); format: cell-based, humaine
# From the text: Ces essais comprennent comme matériel de départ : • de la N, N'-dichloroazodicarbonamidine (chloroazodine) à 95 % pure. La pureté a été examinée par chromatographie en couche mince et par un test de carbone-hydrogène (v. BRAZ G.I. et cons., J. Applied Chem. (USSR) 17,565-9 (1944)). • un surnageant de cultures de cellules (Molt-3) continuellement productrices de virus VIH-1. Le surnageant viral utilisé a une activité de transcriptase inverse de 1 x 10^6 cpm/ml. • des cellules d'une lignée T humaine continue de phénotype T4 (Supt-1) cultivée en milieu RPMI, additionné de 10 % de sérum de veau foetal et de 1 % de glutamine.
# Essai de toxicité de la chloroazodine vis-à-vis des cellules Supt-1.
# La chloroazodine à la dilution de 1/500, ce qui correspond à 2 mg/ml, est toxique pour les cellules Supt-1.
compound,measurement,setting,value
"NC(N=NC(N)=NCl)=NCl [chloroazodine, N, N'-dichloroazodicarbonamidine]",Mesure du pouvoir infectieux des virus VIH-1 dans des lymphocytes humains infectés (densité optique),"[1]; treatment 1 hour, 4 days after treatment","0,170"
same,Mesure du pouvoir infectieux des virus VIH-1 dans des lymphocytes humains infectés (densité optique),"[1]; treatment 1 hour, 7 days after treatment","0,170"
same,Mesure du pouvoir infectieux des virus VIH-1 dans des lymphocytes humains infectés (densité optique),"[1]; treatment 1 hour, 11 days after treatment","0,114"
same,Mesure du pouvoir infectieux des virus VIH-1 dans des lymphocytes humains infectés (densité optique),"[1]; treatment 3 hours, 4 days after treatment","0,197"
same,Mesure du pouvoir infectieux des virus VIH-1 dans des lymphocytes humains infectés (densité optique),"[1]; treatment 3 hours, 7 days after treatment","0,158"
same,Mesure du pouvoir infectieux des virus VIH-1 dans des lymphocytes humains infectés (densité optique),"[1]; treatment 3 hours, 11 days after treatment","0,095"
same,Mesure du pouvoir infectieux des virus VIH-1 dans des lymphocytes humains infectés (densité optique),"[1]; treatment 6 hours, 4 days after treatment","0,192"
same,Mesure du pouvoir infectieux des virus VIH-1 dans des lymphocytes humains infectés (densité optique),"[1]; treatment 6 hours, 7 days after treatment","0,203"
same,Mesure du pouvoir infectieux des virus VIH-1 dans des lymphocytes humains infectés (densité optique),"[1]; treatment 6 hours, 11 days after treatment","0,078"
same,toxicité vis-à-vis des cellules Supt-1,cellules Supt-1; dilution 1/500 (2 mg/ml),toxique
same,viabilité cellulaire (cellules Supt-1),cellules Supt-1; dilution 1/1500 (660 µg/ml),ne diminuent par contre pas la viabilité cellulaire
same,viabilité cellulaire (cellules Supt-1),cellules Supt-1; dilution 1/3000 (330 µg/ml),ne diminuent par contre pas la viabilité cellulaire
